Data as given in ChEMBL document CHEMBL3272015, “Cysteine derivatives with reactive groups as potential antitumor agents” (1976).
Active and inactive are the calls of the source. No cut-off for these calls is given here.

How the values were obtained:
TA3 [1] = experiment: Antitumor activity against mouse TA3 cells assessed as growth inhibition at 10^-4 M; type: functional, cell-based
TA3 [2] = experiment: Induction of growth in mouse TA3 cell at 10^-4 M; type: functional, cell-based
TA3 [3] = experiment: Antitumor activity against mouse TA3 cells assessed as growth inhibition; type: functional

Row | Compound | growth inhibition (GI) (TA3 [1]) | Activity (TA3 [2]) | ID50 (TA3 [3])
1 | CC(=O)N1[C@@H](c2ccc(C)cc2)SC[C@H]1C(=O)O | inactive | inactive | –
2 | CC(=O)N1C(c2ccc(C)cc2)SC(C)(C)C1C(=O)O (centres undefined) | inactive | – | –
3 | N[C@@H](CSC(c1ccccc1)(c1ccccc1)c1ccccc1)C(=O)O [S-TRITYL-L-CYSTEINE] | – | – | 6.3 ×10⁻⁷ M
4 | Cc1ccc(C2NC(C(=O)O)C(C)(C)S2)cc1 (centres undefined) | inactive | – | –
5 | Cc1ccc([C@H]2SC[C@@H](C(=O)O)N2C(=O)C(F)(F)F)cc1 | – | inactive | –
6 | CC(=O)N1[C@@H](c2ccc(C)cc2)SC[C@H]1C(=O)CCl | – | – | 3.2 ×10⁻⁵ M
7 | Cc1ccc([C@@H]2N[C@H](C(=O)O)CS2)cc1 | – | Active | –
8 | CC(=O)N1[C@@H](c2ccc(C)cc2)SC[C@H]1C(=O)C=[N+]=[N-] | inactive | – | –
